SMILES strings stand for the structures.

Common to all, as to experiment: CellTiter-Blue cell viability assay
What all share (assay type): cell-based, human
On the technique in general: Alamar Blue is a resazurin reagent that responds to reducing activity.

Assay [1] deals with BG1. As to conditions: BG1 ovarian cancer cell line, 72 hours, 50% reduction in growth/viability. The source says: (§1) Ovarian cancer cell lines were obtained from the American Type Culture Collection (Manassas, Va.) (CAOV3, OV90, OVCAR3, SKOV3, TO[…]); from the European Collection of Cell Cultures, Salisbury, UK (A2780CP, A2780S); or from Kyoto University, Kyoto, Japan ([…], Tyknu, and TyknuC is R) or were kind gifts from Dr. Patricia Kruk, Department of Pathology, College of Medicine, University of South Florida, Tampa, Fla., and Susan Murphy, PhD, Dept of OBGYN/Division of GYN Oncology, Duke University, Durham, N.C. […] Cell lines were maintained in RPMI-1640 (Invitrogen, Carlsbad, Calif.) supplemented with 10% fetal bovine serum (Fisher Scientific, Pittsburgh, Pa.), 1% sodium pyruvate, 1% penicillin/streptomycin (Cellgro, Manassas, Va.), and 1% nonessential amino acids (HyClone, Hudson, N.H.). Mycoplasma testing was performed every 6 months following manufacturer's protocol (Lonza, Rockland, Me.). Drug activity was evaluated using a high-throughput CellTiter-Blue cell viability assay. […] After cell adherence, increasing concentrations of cisplatin, carboplatin (Sigma-Aldrich, St. Louis, Mo.), paclitaxel (Sequoia Research Products Ltd., Pangbourne, UK), or carboplatin plus paclitaxel (carbotaxol: constant molar ratio of carboplatin to paclitaxel of 20,000:1) were added to appropriate wells using an automated pipetting station. Four replicate wells were used for each drug concentration and vehicle controls. […] The cells were incubated with the drug for 72 hours, and 5 μL of CellTiter-Blue reagent (Promega Corp) was added to each well. Fluorescence was read at […] using a Synergy 4 microplate reader (Bio-Tek Instruments, Inc., Winooski, Vt.).

Assay [2] relates to IGR-OV1. The note with it: IGR-OV1 ovarian cancer cell line, 72 hours, 50% reduction in growth/viability.
From the text: as §1

For assay [3], the system named is IMCC3. The note with it: IMCC3 ovarian cancer cell line; 72 hours; 50% reduction in growth/viability.
From the text: as §1

Assay [4] has as its system OV2008. As to conditions: OV2008 ovarian cancer cell line, 72 hours, 50% reduction in growth/viability.
From the text: as §1

Assay [5] relates to OV90. The note with it: OV90 ovarian cancer cell line, 72 hours, 50% reduction in growth/viability.
From the text: as §1

The test system of assay [6] is OVCA420. The note with it: OVCA420 ovarian cancer cell line; 72 hours; 50% reduction in growth/viability.
From the text: as §1

The test system of assay [7] is OVCAR5. The note with it: OVCAR5 ovarian cancer cell line, 72 hours, 50% reduction in growth/viability.
From the text: as §1

The subject of assay [8] is TyknuCisR. The note with it: TyknuCisR ovarian cancer cell line, 72 hours, 50% reduction in growth/viability.
From the text: as §1

Assay [9] has as its system FUOV1. The note with it: FUOV1 ovarian cancer cell line, 72 hours, 50% reduction in growth/viability. An excerpt: Ovarian cancer cell lines were obtained from the American Type Culture Collection (Manassas, Va.) (CAOV3, OV90, OVCAR3, SKOV3, TOV112D); from the European Collection of Cell Cultures, Salisbury, UK (A2780CP, A2780S); or from Kyoto University, Kyoto, Japan (CHI, CHIcisR, M41, M41CSR, Tyknu, and TyknuC is R) or were kind gifts from Dr. Patricia Kruk, Department of Pathology, College of Medicine, University of South Florida, Tampa, Fla., and Susan Murphy, PhD, Dept of OBGYN/Division of GYN Oncology, Duke University, Durham, N.C. (A2008, C13, CAOV2, FUOV1, HeyA8, IGR-OV1, IMCC3, IMCC5, MCAS, OV2008, OVCA420, OVCA429, OVCA432, OVCA433, OVCAR4, OVCAR5, OVCAR8, Dov13, BG1, Ovary1847, OVCAR10, OVCAR2, SK-OV-4).
Cell lines were maintained in RPMI-1640 (Invitrogen, Carlsbad, Calif.) supplemented with 10% fetal bovine serum (Fisher Scientific, Pittsburgh, Pa.), 1% sodium pyruvate, 1% penicillin/streptomycin (Cellgro, Manassas, Va.), and 1% nonessential amino acids (HyClone, Hudson, N.H.). […]
Drug activity was evaluated using a high-throughput CellTiter-Blue cell viability assay. […] Fluorescence was read at […] using a Synergy 4 microplate reader (Bio-Tek Instruments, Inc., Winooski, Vt.). IC50 results were determined using a sigmoidal equilibrium model fit (XLfit 5.2, ID Business Solutions Ltd.). […]

The term IC50 denotes the concentration at which inhibition is half-maximal. As to `N.N.O=C([O-])C1(C(=O)[O-])CCC1.[Pt+2]` [Carboplatin, carboplatin], the IC50 in assay [1] stood at 144 µM; in assay [2], 65.4 µM; in assay [3], 69.5 µM; in [4] it was 45.1 µM; in [5], 213 µM; in [6], 166 µM. Moreover, the IC50 in assay [7] amounted to 125 µM; in [8] it was 63.7 µM; in assay [9], 87.9 µM.
In the case of `CC(=O)O[C@H]1C(=O)[C@@]2(C)[C@H]([C@H](OC(=O)c3ccccc3)[C@]3(O)C[C@H](OC(=O)[C@H](O)[C@@H](NC(=O)c4ccccc4)c4ccccc4)C(C)=C1C3(C)C)[C@]1(OC(C)=O)CO[C@@H]1C[C@@H]2O` [Paclitaxel, paclitaxel], the half-maximal inhibitory concentration (IC50) stood at 0.0055 µM in assay [1] (Homo sapiens, BG-1); 0.0374 µM in [2] (Homo sapiens, IGROV-1); 0.0139 µM in assay [4] (Homo sapiens); 0.108 µM in assay [5] (Homo sapiens, OV-90); 0.0056 µM in assay [7] (Homo sapiens, OVCAR-5); 0.0072 µM in [8] (Homo sapiens). In addition, the IC50 in assay [9] (Homo sapiens) is 4.4 µM.

These data come from patent US10982284B2, “Compositions and methods APC, CREB, and BAD pathways to assess and affect cancer” (H. Lee Moffitt Cancer Center and Research Institute, Inc., priority 2011, dated 2021).
